{"source": "patent US9856511B2", "about": "“Protease deubiquitinating inhibitor screening” (priority 2011, dated 2018)", "key": {"HCT-116 cells": {"system": "HCT-116 cells", "assay": "Immunoblot of DNA damage markers (phosphorylated p53, H2AX)", "assay_type": "cell-based", "protocol": "The turnover of many cell cycle regulatory proteins is controlled by the UPS including inhibitors of the cyclin-dependent kinases p21 Cip1, p27 Kip1 and the tumor suppressor p53 (4). Treatment with b-AP15 increased their levels in a dose dependent manner.\nHCT-116 cells were treated with b-AP15 or doxorubicin (100 nM, as a positive control for genotoxic stress for 18 h) (FIG. 5). Cell lysates were immuno-blotted with antibodies for phosphorylated p53 and histone H2 Ax marker for DNA damage of for total levels of p53 and β-actin as loading controls."}, "19S RP": {"biological_target": "T1, 19S RP (Homo sapiens, UniProt P54578+Q9Y5K5)", "T1 construct": "purchased Boston Biochem E-366", "assay": "De-ubiquitinase activity assay, purified 19S RP with ubiquitin-AMC", "assay_type": "biochemical", "protocol": "In vitro proteasome activity assays were performed in black 96-well microtiter plates using human 20S proteasome (Boston Biochem) in reaction buffer (25 mM Hepes, 0.5 mM EDTA, 0.03% SDS) with Suc-LLVY-AMC, Z-LLE-AMC or Boc-LRRAMC used as substrates for proteasome activity. De-ubiquitinase activity assays were performed with human 19S RP (Boston Biochem) with ubiquitin-AMC as substrate. For xenograft studies a 100-μl-cell suspension containing 1×10^6 FaDu head-neck or 2×10^5 Lewis Lung Carcinoma (LLC) cells were injected subcutaneously into the flank of SCID or C57BL/6J mice. Upon tumor take mice were randomized into control or treatment groups and administered with 5 mg kg^−1 b-AP15 or vehicle. In vivo levels of apoptosis and cell death were determined from the detection of caspase cleaved and total levels of cytokeratin-18 in plasma using M30 Apoptosense® and M65 ELISA®s assays (Peviva). […]\nIn vitro proteasome activity assays using 20S CP (2 nM) (Boston Biochem) were performed at 37° C. in 100-μl reaction buffer (25 mM Hepes, 0.5 mM EDTA, 0.03% SDS). […] Fluorescence was monitored using Wallac Multilabel counter or Tecan Infinite M1000 equipped with 360 nm excitation and 460 nm emission filters. […]\nDose response of b-AP15 (FIG. 11a): Purified 19S proteasomes (5 nM) were treated with indicated concentrations of b-AP15, and DUB activity was determined by detection of Ub-AMC cleavage. […]"}}}
{"smiles": "C=CC(=O)N1C/C(=C\\c2ccc([N+](=O)[O-])cc2)C(=O)/C(=C/c2ccc([N+](=O)[O-])cc2)C1", "note": "[b-AP15]", "values": [{"measurement": "level of DNA damage markers phosphorylated p53 (Ser 15) and H2AX (Ser 139)", "setting": "HCT-116 cells", "value": "no increase was observed"}, {"measurement": "effect of reduced glutathione on inhibition of 19S DUB activity", "setting": "19S RP; b-AP15 10 μM mixed with GSH 2 mM, 19S 5 nM", "value": "did not reduce b-AP15 mediated inhibition"}, {"measurement": "reversibility of inhibition of 19S DUB activity", "setting": "19S RP; recovery of activity after 50-fold rapid dilution of enzyme/b-AP15 complex", "value": "reversible inhibitor"}]}
